Measured values taken from the NIST ThermoML archive (doi:10.1016/j.jct.2014.12.020).

Assay: wn = mass fraction of the nth substance listed
Conditions: 100 kPa, Liquid; for viscosity: Concentric cylinders viscometry; for mass density: Vibrating tube method

CCC(=O)[O-].C[N+](C)(C)CCO [cholinium propanoate] + O
Conditions	mass density [kg/m3]	viscosity [mPa·s]
293.15 K, w2 = 0.003	1070.1	4600
293.15 K, w2 = 0.01	1070.9	3316.4
293.15 K, w2 = 0.021	1072.1	2130.4
293.15 K, w2 = 0.025	1072.3	1826.4
293.15 K, w2 = 0.046	1074	980.3
293.15 K, w2 = 0.064	1075.3	607
293.15 K, w2 = 0.1	1076.9	286
293.15 K, w2 = 0.127	1077.5	193.3
293.15 K, w2 = 0.208	1077.7	74.5
293.15 K, w2 = 0.262	1075.4	49.6
298.15 K, w2 = 0.003	1067.4	2918.6
298.15 K, w2 = 0.01	1068.1	2112.2
298.15 K, w2 = 0.021	1069.2	1416.6
298.15 K, w2 = 0.025	1069.5	1227.2
298.15 K, w2 = 0.046	1071.1	681.1
298.15 K, w2 = 0.064	1072.3	432.9
298.15 K, w2 = 0.1	1074	211.8
298.15 K, w2 = 0.127	1074.6	145.4
298.15 K, w2 = 0.208	1074.9	57.9
298.15 K, w2 = 0.262	1072.3	39.1
303.15 K, w2 = 0.003	1064.6	1909.6
303.15 K, w2 = 0.01	1065.3	1410
303.15 K, w2 = 0.021	1066.4	968.2
303.15 K, w2 = 0.025	1066.7	847.5
303.15 K, w2 = 0.046	1068.2	484.8
303.15 K, w2 = 0.064	1069.5	315.7
303.15 K, w2 = 0.1	1071.2	159.9
303.15 K, w2 = 0.127	1071.9	111.4
303.15 K, w2 = 0.208	1072	45.8
303.15 K, w2 = 0.262	1069.4	31.4
308.15 K, w2 = 0.003	1061.9	1285
308.15 K, w2 = 0.01	1062.5	967
308.15 K, w2 = 0.021	1063.6	678.9
308.15 K, w2 = 0.025	1063.8	599.9
308.15 K, w2 = 0.046	1065.4	353
308.15 K, w2 = 0.064	1066.7	235.1
308.15 K, w2 = 0.1	1068.4	123
308.15 K, w2 = 0.127	1069.1	86.8
308.15 K, w2 = 0.208	1069.2	36.7
308.15 K, w2 = 0.262	1066.5	25.5
313.15 K, w2 = 0.003	1059.2	888.1
313.15 K, w2 = 0.01	1059.8	680.2
313.15 K, w2 = 0.021	1060.8	487.3
313.15 K, w2 = 0.025	1061	434.3
313.15 K, w2 = 0.046	1062.6	262.3
313.15 K, w2 = 0.064	1063.9	178.4
313.15 K, w2 = 0.1	1065.7	96.1
313.15 K, w2 = 0.127	1066.4	68.7
313.15 K, w2 = 0.208	1066.3	29.8
313.15 K, w2 = 0.262	1063.6	20.8
318.15 K, w2 = 0.003	1056.4	628.8
318.15 K, w2 = 0.01	1057	489.6
318.15 K, w2 = 0.021	1058.1	357.4
318.15 K, w2 = 0.025	1058.3	321.1
318.15 K, w2 = 0.046	1059.9	198.7
318.15 K, w2 = 0.064	1061.2	137.7
318.15 K, w2 = 0.1	1062.9	76.2
318.15 K, w2 = 0.127	1063.6	55.1
318.15 K, w2 = 0.208	1063.4	24.5
318.15 K, w2 = 0.262	1060.7	17.5
323.15 K, w2 = 0.003	1053.6	455.4
323.15 K, w2 = 0.01	1054.3	360
323.15 K, w2 = 0.021	1055.4	267.4
323.15 K, w2 = 0.025	1055.7	241.9
323.15 K, w2 = 0.046	1057.3	153.1
323.15 K, w2 = 0.064	1058.7	108
323.15 K, w2 = 0.1	1060.2	61.3
323.15 K, w2 = 0.127	1060.8	44.8
323.15 K, w2 = 0.208	1060.6	20.4
323.15 K, w2 = 0.262	1057.8	14.7
328.15 K, w2 = 0.003	1050.9	336.7
328.15 K, w2 = 0.01	1051.6	270
328.15 K, w2 = 0.021	1052.7	203.8
328.15 K, w2 = 0.025	1053	185.5
328.15 K, w2 = 0.046	1054.6	119.9
328.15 K, w2 = 0.064	1056	86
328.15 K, w2 = 0.1	1057.5	50
328.15 K, w2 = 0.127	1058	36.9
328.15 K, w2 = 0.208	1057.8	17.2
328.15 K, w2 = 0.262	1054.9	12.5
333.15 K, w2 = 0.003	1048.2	253.8
333.15 K, w2 = 0.01	1049	206.2
333.15 K, w2 = 0.021	1050.1	158.1
333.15 K, w2 = 0.025	1050.3	144.6
333.15 K, w2 = 0.046	1052.1	95.3
333.15 K, w2 = 0.064	1053.3	69.4
333.15 K, w2 = 0.1	1054.8	41.2
333.15 K, w2 = 0.127	1055.4	30.7
333.15 K, w2 = 0.208	1054.9	14.6
333.15 K, w2 = 0.262	1051.9	10.6
338.15 K, w2 = 0.003	1045.5	194.8
338.15 K, w2 = 0.01	1046.3	160.1
338.15 K, w2 = 0.021	1047.5	124.5
338.15 K, w2 = 0.025	1047.8	114.4
338.15 K, w2 = 0.046	1049.4	76.7
338.15 K, w2 = 0.064	1050.7	56.7
338.15 K, w2 = 0.1	1052.1	34.3
338.15 K, w2 = 0.127	1052.6	25.8
338.15 K, w2 = 0.208	1052	12.5
338.15 K, w2 = 0.262	1048.9	9.3
343.15 K, w2 = 0.003	1042.9	151.9
343.15 K, w2 = 0.01	1043.7	126.2
343.15 K, w2 = 0.021	1044.8	99.3
343.15 K, w2 = 0.025	1045.1	91.8
343.15 K, w2 = 0.046	1046.7	62.5
343.15 K, w2 = 0.064	1047.9	46.8
343.15 K, w2 = 0.1	1049.3	28.8
343.15 K, w2 = 0.127	1049.7	21.9
343.15 K, w2 = 0.208	1049.1	10.8
343.15 K, w2 = 0.262	1045.8	8.1
